Columns and labels:
[1] = test system: Tyrosine-protein kinase ABL1 (Homo sapiens), P00519 [F317I]; settings: Compound concentration 1000.0 nM
[2] = biological target: Activin receptor type-1-like (Homo sapiens) (UniProt P37023); settings: Compound concentration 1000.0 nM
[3] = biological target: Aurora kinase B (Homo sapiens) (UniProt Q96GD4); settings: Compound concentration 1000.0 nM
[4] = test system: Serine/threonine-protein kinase B-raf (Homo sapiens), P15056 [V600E]; settings: Compound concentration 1000.0 nM
[5] = biological target: Calcium/calmodulin-dependent protein kinase type IV (Homo sapiens) (UniProt Q16566); settings: Compound concentration 1000.0 nM
[6] = biological target: Macrophage colony-stimulating factor 1 receptor (Homo sapiens) (UniProt P07333); settings: Compound concentration 1000.0 nM
[7] = biological target: Mitogen-activated protein kinase 7 (Homo sapiens) (UniProt Q13164); settings: Compound concentration 1000.0 nM
[8] = biological target: Focal adhesion kinase 1 (Homo sapiens) (UniProt Q05397); settings: Compound concentration 1000.0 nM
[9] = biological target: Tyrosine-protein kinase Fer (Homo sapiens) (UniProt P16591); settings: Compound concentration 1000.0 nM
[10] = biological target: Fibroblast growth factor receptor 3 (Homo sapiens) (UniProt P22607); settings: Compound concentration 1000.0 nM
[11] = biological target: Tyrosine-protein kinase FRK (Homo sapiens) (UniProt P42685); settings: Compound concentration 1000.0 nM
[12] = biological target: Tyrosine-protein kinase Fyn (Homo sapiens) (UniProt P06241); settings: Compound concentration 1000.0 nM
[13] = biological target: Mitogen-activated protein kinase kinase kinase kinase 1 (Homo sapiens) (UniProt Q92918); settings: Compound concentration 1000.0 nM
[14] = biological target: Hormonally up-regulated neu tumor-associated kinase (Homo sapiens) (UniProt P57058); settings: Compound concentration 1000.0 nM
[15] = test system: Mast/stem cell growth factor receptor Kit (Homo sapiens), P10721 [D816V]; settings: Compound concentration 1000.0 nM
[16] = biological target: Mast/stem cell growth factor receptor Kit (Homo sapiens) (UniProt P10721); settings: Compound concentration 1000.0 nM
[17] = biological target: LIM domain kinase 1 (Homo sapiens) (UniProt P53667); settings: Compound concentration 1000.0 nM
[18] = biological target: MAP/microtubule affinity-regulating kinase 3 (Homo sapiens) (UniProt P27448); settings: Compound concentration 1000.0 nM
[19] = biological target: Dual specificity mitogen-activated protein kinase kinase 1 (Homo sapiens) (UniProt Q02750); settings: Compound concentration 1000.0 nM
[20] = biological target: Maternal embryonic leucine zipper kinase (Homo sapiens) (UniProt Q14680); settings: Compound concentration 1000.0 nM
[21] = test system: Hepatocyte growth factor receptor (Homo sapiens), P08581 [M1250T]; settings: Compound concentration 1000.0 nM
[22] = biological target: Myosin light chain kinase (Homo sapiens) (UniProt Q32MK0); settings: Compound concentration 1000.0 nM
[23] = biological target: Serine/threonine-protein kinase MRCK alpha (Homo sapiens) (UniProt Q5VT25); settings: Compound concentration 1000.0 nM
[24] = biological target: Serine/threonine-protein kinase MRCK beta (Homo sapiens) (UniProt Q9Y5S2); settings: Compound concentration 1000.0 nM
[25] = biological target: Serine/threonine-protein kinase 4 (Homo sapiens) (UniProt Q13043); settings: Compound concentration 1000.0 nM
[26] = biological target: Serine/threonine-protein kinase 24 (Homo sapiens) (UniProt Q9Y6E0); settings: Compound concentration 1000.0 nM
[27] = biological target: Serine/threonine-protein kinase Nek9 (Homo sapiens) (UniProt Q8TD19); settings: Compound concentration 1000.0 nM
[28] = biological target: Serine/threonine-protein kinase NLK (Homo sapiens) (UniProt Q9UBE8); settings: Compound concentration 1000.0 nM
[29] = test system: Phosphatidylinositol 4,5-bisphosphate 3-kinase catalytic subunit alpha isoform (Homo sapiens), P42336 [H1047Y]; settings: Compound concentration 1000.0 nM
[30] = biological target: Phosphatidylinositol 4-kinase beta (Homo sapiens) (UniProt Q9UBF8); settings: Compound concentration 1000.0 nM
[31] = biological target: Serine/threonine-protein kinase pim-1 (Homo sapiens) (UniProt P11309); settings: Compound concentration 1000.0 nM
[32] = biological target: Protein kinase C theta type (Homo sapiens) (UniProt Q04759); settings: Compound concentration 1000.0 nM
[33] = biological target: Interferon-induced, double-stranded RNA-activated protein kinase (Homo sapiens) (UniProt P19525); settings: Compound concentration 1000.0 nM
[34] = test system: Proto-oncogene tyrosine-protein kinase receptor Ret (Homo sapiens), P07949 [V804M]; settings: Compound concentration 1000.0 nM
[35] = biological target: Receptor-interacting serine/threonine-protein kinase 2 (Homo sapiens) (UniProt O43353); settings: Compound concentration 1000.0 nM
[36] = biological target: Proto-oncogene tyrosine-protein kinase Src (Homo sapiens) (UniProt P12931); settings: Compound concentration 1000.0 nM
[37] = biological target: Serine/threonine-protein kinase 35 (Homo sapiens) (UniProt Q8TDR2); settings: Compound concentration 1000.0 nM
[38] = biological target: Mitogen-activated protein kinase kinase kinase 7 (Homo sapiens) (UniProt O43318); settings: Compound concentration 1000.0 nM
[39] = biological target: TRAF2 and NCK-interacting protein kinase (Homo sapiens) (UniProt Q9UKE5); settings: Compound concentration 1000.0 nM
[40] = biological target: High affinity nerve growth factor receptor (Homo sapiens) (UniProt P04629); settings: Compound concentration 1000.0 nM
[41] = biological target: Non-receptor tyrosine-protein kinase TYK2 (Homo sapiens) (UniProt P29597); settings: Compound concentration 1000.0 nM
[42] = biological target: Serine/threonine-protein kinase VRK2 (Homo sapiens) (UniProt Q86Y07); settings: Compound concentration 1000.0 nM
[43] = biological target: Tyrosine-protein kinase Yes (Homo sapiens) (UniProt P07947); settings: Compound concentration 1000.0 nM
[44] = biological target: Alpha-1A adrenergic receptor (Homo sapiens) (UniProt P35348); settings: Compound concentration 10.0 uM
[45] = biological target: Muscarinic acetylcholine receptor M1 (Homo sapiens) (UniProt P11229); settings: Compound concentration 10.0 uM
Sequence of Muscarinic acetylcholine receptor M1 (Homo sapiens) (P11229 whole entry): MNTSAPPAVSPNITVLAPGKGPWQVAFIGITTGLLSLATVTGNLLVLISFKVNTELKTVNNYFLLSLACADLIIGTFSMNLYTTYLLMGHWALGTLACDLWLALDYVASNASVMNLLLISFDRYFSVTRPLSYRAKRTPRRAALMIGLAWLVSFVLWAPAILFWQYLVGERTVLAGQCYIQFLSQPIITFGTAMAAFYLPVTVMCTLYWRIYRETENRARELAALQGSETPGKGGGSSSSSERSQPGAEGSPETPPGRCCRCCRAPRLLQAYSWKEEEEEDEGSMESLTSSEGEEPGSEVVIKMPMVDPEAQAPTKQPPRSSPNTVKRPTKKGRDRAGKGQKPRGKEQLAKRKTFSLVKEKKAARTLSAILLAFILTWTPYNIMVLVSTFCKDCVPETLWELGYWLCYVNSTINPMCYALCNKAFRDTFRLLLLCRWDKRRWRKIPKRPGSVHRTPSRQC

Sequence of Non-receptor tyrosine-protein kinase TYK2 (Homo sapiens) (P29597 whole entry): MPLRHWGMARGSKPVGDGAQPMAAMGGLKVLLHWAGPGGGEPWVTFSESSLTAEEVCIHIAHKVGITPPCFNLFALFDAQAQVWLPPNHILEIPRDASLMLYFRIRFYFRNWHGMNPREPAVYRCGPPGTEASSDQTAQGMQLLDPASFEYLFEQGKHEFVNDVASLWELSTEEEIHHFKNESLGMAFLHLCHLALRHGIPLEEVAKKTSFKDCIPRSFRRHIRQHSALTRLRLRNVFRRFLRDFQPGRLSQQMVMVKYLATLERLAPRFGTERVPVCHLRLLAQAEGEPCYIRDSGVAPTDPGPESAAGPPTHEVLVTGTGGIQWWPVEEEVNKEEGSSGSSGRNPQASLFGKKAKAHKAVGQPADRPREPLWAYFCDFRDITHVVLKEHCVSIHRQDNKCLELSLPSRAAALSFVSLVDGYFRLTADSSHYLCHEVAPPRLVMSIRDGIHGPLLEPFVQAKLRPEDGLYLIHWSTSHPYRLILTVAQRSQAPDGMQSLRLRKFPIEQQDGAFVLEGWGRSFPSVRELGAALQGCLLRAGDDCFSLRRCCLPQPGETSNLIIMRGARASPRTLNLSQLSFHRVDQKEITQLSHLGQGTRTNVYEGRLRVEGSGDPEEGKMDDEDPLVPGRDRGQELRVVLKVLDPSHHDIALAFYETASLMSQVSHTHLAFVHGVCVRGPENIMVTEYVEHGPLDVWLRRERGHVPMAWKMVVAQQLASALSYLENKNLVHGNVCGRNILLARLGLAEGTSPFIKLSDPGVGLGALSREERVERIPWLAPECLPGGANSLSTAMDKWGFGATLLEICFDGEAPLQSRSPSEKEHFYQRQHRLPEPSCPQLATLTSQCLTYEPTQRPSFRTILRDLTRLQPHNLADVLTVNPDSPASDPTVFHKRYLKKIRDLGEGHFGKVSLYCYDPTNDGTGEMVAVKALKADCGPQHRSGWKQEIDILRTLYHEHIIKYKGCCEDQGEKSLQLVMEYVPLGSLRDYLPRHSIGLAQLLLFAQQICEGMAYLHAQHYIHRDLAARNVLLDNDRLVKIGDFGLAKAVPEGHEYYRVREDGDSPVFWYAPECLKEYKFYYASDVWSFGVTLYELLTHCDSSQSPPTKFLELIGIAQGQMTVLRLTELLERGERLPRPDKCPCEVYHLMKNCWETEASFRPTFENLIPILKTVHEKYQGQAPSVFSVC
Sequence of Protein kinase C theta type (Homo sapiens) (Q04759 whole entry, looked up): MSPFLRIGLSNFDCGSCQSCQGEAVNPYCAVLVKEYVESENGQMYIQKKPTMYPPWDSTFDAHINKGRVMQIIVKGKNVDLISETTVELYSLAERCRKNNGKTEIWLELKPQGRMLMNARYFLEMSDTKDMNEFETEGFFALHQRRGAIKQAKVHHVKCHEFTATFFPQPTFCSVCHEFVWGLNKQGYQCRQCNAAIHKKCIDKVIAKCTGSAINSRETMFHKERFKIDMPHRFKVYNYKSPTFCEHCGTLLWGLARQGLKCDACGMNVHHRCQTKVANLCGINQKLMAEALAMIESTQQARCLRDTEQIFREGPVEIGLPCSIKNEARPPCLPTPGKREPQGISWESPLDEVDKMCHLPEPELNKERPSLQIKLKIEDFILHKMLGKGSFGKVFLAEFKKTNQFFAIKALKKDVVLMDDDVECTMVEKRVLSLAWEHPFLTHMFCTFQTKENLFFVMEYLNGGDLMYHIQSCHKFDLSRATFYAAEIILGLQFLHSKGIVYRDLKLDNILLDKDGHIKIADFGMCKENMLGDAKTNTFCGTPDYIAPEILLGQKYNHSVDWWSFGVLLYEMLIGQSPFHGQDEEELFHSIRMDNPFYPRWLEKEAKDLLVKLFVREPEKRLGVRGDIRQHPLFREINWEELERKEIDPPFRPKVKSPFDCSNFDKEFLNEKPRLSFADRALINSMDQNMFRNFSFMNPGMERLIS
Sequence of Phosphatidylinositol 4,5-bisphosphate 3-kinase catalytic subunit alpha isoform (Homo sapiens), P42336 [H1047Y] (P42336 whole entry H1047Y, canonical isoform): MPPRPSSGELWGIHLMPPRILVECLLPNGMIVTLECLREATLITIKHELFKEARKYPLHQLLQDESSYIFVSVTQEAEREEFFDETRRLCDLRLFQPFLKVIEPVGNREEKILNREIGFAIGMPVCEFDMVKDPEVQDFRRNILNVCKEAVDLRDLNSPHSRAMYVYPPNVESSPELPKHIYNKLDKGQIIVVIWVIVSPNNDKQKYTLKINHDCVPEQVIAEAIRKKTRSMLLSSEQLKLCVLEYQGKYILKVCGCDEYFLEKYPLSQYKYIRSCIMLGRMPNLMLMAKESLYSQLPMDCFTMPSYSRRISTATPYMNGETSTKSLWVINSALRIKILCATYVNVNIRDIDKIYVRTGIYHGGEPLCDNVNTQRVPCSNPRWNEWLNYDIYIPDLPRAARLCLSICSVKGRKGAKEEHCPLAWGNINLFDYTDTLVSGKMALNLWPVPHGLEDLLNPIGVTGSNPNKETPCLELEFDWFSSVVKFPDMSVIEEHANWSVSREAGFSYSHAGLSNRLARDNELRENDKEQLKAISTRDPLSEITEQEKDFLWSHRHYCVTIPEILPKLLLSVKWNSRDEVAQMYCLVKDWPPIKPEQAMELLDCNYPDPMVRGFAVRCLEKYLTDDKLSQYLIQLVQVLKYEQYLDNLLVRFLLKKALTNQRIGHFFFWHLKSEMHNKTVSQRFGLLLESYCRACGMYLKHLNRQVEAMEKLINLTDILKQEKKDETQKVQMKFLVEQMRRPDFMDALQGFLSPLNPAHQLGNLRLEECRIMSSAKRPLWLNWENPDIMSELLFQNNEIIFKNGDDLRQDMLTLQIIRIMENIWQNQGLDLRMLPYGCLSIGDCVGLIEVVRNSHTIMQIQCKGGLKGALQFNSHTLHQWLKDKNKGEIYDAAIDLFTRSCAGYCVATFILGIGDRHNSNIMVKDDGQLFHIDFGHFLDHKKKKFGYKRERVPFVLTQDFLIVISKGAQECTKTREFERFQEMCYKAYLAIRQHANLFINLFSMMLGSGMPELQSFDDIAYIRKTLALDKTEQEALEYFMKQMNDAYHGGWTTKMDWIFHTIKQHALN
Sequence of Tyrosine-protein kinase Yes (Homo sapiens) (P07947 2-543 limits assumed): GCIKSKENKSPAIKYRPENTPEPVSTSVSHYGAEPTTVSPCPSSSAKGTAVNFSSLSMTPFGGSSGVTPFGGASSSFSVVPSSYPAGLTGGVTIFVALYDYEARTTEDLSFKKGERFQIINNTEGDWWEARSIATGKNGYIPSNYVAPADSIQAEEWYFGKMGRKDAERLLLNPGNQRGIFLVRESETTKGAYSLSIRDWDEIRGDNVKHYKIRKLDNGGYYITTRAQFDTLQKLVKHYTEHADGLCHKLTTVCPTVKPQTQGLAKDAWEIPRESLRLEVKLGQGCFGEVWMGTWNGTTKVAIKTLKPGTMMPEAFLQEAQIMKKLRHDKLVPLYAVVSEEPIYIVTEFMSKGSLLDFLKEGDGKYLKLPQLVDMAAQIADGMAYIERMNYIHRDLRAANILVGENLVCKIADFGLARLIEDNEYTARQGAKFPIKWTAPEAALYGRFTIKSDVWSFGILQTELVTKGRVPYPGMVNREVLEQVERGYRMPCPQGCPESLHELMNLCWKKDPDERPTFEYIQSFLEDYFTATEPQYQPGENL
Sequence of Dual specificity mitogen-activated protein kinase kinase 1 (Homo sapiens) (Q02750 whole entry): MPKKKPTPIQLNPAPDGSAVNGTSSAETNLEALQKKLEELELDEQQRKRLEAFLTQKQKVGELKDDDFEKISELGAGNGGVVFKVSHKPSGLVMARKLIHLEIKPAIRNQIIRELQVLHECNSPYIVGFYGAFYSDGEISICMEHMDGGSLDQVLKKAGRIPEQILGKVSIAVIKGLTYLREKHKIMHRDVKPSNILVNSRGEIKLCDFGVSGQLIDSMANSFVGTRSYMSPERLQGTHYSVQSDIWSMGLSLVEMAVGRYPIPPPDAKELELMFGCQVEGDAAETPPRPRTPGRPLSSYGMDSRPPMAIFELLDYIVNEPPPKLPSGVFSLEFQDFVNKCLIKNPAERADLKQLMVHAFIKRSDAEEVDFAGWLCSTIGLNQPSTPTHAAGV
Sequence of Serine/threonine-protein kinase 24 (Homo sapiens) (Q9Y6E0 whole entry, looked up): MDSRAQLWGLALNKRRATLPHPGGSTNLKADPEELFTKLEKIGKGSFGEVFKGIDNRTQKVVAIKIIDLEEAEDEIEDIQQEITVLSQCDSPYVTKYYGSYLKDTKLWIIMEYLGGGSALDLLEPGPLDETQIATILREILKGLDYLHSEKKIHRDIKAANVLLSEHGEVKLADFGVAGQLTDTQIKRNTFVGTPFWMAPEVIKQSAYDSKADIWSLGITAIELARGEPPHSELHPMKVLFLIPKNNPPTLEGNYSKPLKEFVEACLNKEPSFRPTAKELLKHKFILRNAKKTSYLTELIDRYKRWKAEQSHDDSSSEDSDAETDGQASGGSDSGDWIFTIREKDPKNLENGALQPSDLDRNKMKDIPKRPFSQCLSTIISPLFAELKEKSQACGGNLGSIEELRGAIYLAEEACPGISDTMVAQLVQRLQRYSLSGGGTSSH

Cc1nc(N2CC[C@@H](O)C2)ncc1-c1cc(C(F)(F)F)cc2[nH]ncc12 [TP-004]
inactive: residual activity [1] 87% | residual activity [2] 100% | residual activity [3] 100% | residual activity [4] 77% | residual activity [5] 100% | residual activity [6] 89% | residual activity [7] 83% | residual activity [8] 86% | residual activity [9] 97% | residual activity [10] 100% | residual activity [11] 98% | residual activity [12] 100% | residual activity [13] 100% | residual activity [14] 100% | residual activity [15] 100% | residual activity [16] 89% | residual activity [17] 85% | residual activity [18] 100% | residual activity [19] 83% | residual activity [20] 100% | residual activity [21] 92% | residual activity [22] 98% | residual activity [23] 100% | residual activity [24] 100% | residual activity [25] 83% | residual activity [26] 100% | residual activity [27] 96% | residual activity [28] 100% | residual activity [29] 99% | residual activity [30] 53% | residual activity [31] 100% | residual activity [32] 100% | residual activity [33] 100% | residual activity [34] 96% | residual activity [35] 95% | residual activity [36] 95% | residual activity [37] 100% | residual activity [38] 89% | residual activity [39] 100% | residual activity [40] 56% | residual activity [41] 58% | residual activity [42] 86% | residual activity [43] 90% | inhibition [44] 15.7% | inhibition [45] 1.12%
